According to patent publication US11155517B2, “4-substituted phenylamine derivatives and their use to protect crops by fighting undesired phytopathogenic micoorganisms” (PI INDUSTRIES LTD., priority 2016, dated 2021):

How the values were obtained:
Assay type in all cases: cell-based
Rhizoctonia solani = Rhizoctonia solani (rice sheath blight/potato black scurf) in vitro test, radial growth on Potato Dextrose Agar; conditions: 168 h, 300 ppm, seven days, 25° C., read-out: % control compared to the untreated check (radial growth)
Pyricularia oryzae = assay: microbe, parasite or virus in culture; conditions: 168 h, read-out: % control compared to the untreated check (radial growth)
Fusarium culmorum = Fusarium culmorum (foot rot of cereals) in vitro test, radial growth on Potato Dextrose Agar; conditions: Fusarium culmorum, 168 h, read-out: % control compared to the untreated check (radial growth)
Alternaria solani = Alternaria solani (early blight of tomato/potato) in vitro test, radial growth on Potato Dextrose Agar; conditions: 168 h, 300 ppm, seven days, 25° C., read-out: % control compared to the untreated check (radial growth)
Botrytis cinerea = Botrytis cinerea (gray mold) in vitro test, radial growth on Potato Dextrose Agar; conditions: 168 h, 300 ppm, seven days, 22° C., read-out: % (control) compared to the untreated check (radial growth)
Septoria lycopersici = Septoria lycopersici (leaf spot of tomato) in vitro test, radial growth on Potato Dextrose Agar; conditions: 168 h, seven days, 25° C., read-out: % control compared to the untreated check (radial growth)
Colletotrichum capsici = Colletotrichum capsici (anthracnose) in vitro test, radial growth on Potato Dextrose Agar; conditions: Colletotrichum truncatum, 168 h; 300 ppm; seven days, 25° C.; read-out: % control compared to the untreated check (radial growth)

| Structure (SMILES) | inhibition of growth at 300 ppm (Rhizoctonia solani) [%] | inhibition of growth at 300 ppm (Pyricularia oryzae) [%] | inhibition of growth at 300 ppm (Fusarium culmorum) [%] | inhibition of growth at 300 ppm (Alternaria solani) [%] | inhibition of growth at 300 ppm (Botrytis cinerea) [%] | inhibition of growth at 300 ppm (Septoria lycopersici) [%] | inhibition of growth at 300 ppm (Colletotrichum capsici) [%] |
| --- | --- | --- | --- | --- | --- | --- | --- |
| CCN(C)C=Nc1cc(C)c(Cc2ccc(Cl)c(C)c2)cc1C [Compound 108, N′-(4-(4-chloro-3-methylbenzyl)-2,5-dimethylphenyl)-N-ethyl-N-methylformimidamide] | > 80 | > 75 | 75 | > 75 | > 80 | > 70 | > 80 |
| CCN(C)C=Nc1cc(C)c(Cc2cccc(F)c2)cc1C1CC1 [Compound 197, N′-(2-cyclopropyl-4-(3-fluorobenzyl)-5-methylphenyl)-N-ethyl-N-methylformimidamide] | > 80 | > 75 | 75 | > 75 | > 80 | > 70 | > 80 |
| CCN(C)C=Nc1cc(C)c(Cc2cc(F)ccc2C)cc1Cl [Compound 165, N′-(2-chloro-4-(5-fluoro-2-methylbenzyl)-5-methylphenyl)-N-ethyl-N-methylformimidamide] | > 80 | > 75 | 75 | > 75 | > 80 | > 70 | > 80 |
| C=CCN(C)C=Nc1cc(C)c(Cc2ccccc2Cl)cc1C [Compound 84, N-allyl-N′-(4-(2-chlorobenzyl)-2,5-dimethylphenyl)-N-methylformimidamide] | > 80 | > 75 | 75 | > 75 | > 80 | > 70 | > 80 |
| CCN(C)C=Nc1cc(C)c(Cc2ccc(F)cc2C)cc1Cl [Compound 167, N′-(2-chloro-4-(4-fluoro-2-methylbenzyl)-5-methylphenyl)-N-ethyl-N-methylformimidamide] | > 80 | > 75 | 75 | > 75 | > 80 | > 70 | > 80 |
| CCN(C)C=Nc1cc(C)c(Cc2cc(F)cc(F)c2)cc1Cl [Compound 129, N′-(2-chloro-4-(3,5-difluorobenzyl)-5-methylphenyl)-N-ethyl-N-methylformimidamide] | > 80 | > 75 | 75 | > 75 | > 80 | > 70 | > 80 |
| CCN(C)C=Nc1cc(F)c(Cc2cccc(Cl)c2)cc1C [Compound 173, N′-(4-(3-chlorobenzyl)-5-fluoro-2-methylphenyl)-N-ethyl-N-methylformimidamide] | > 80 | > 75 | 75 | > 75 | > 80 | > 70 | > 80 |
| CCN(C)C=Nc1cc(C)c(Cc2ccccc2Cl)cc1C1CC1 [Compound 223, N′-(4-(2-chlorobenzyl)-2-cyclopropyl-5-methylphenyl)-N-ethyl-N-methylformimidamide] | > 80 | > 75 | 75 | > 75 | > 80 | > 70 | > 80 |
| CCN(C)C=Nc1cc(C)c(Cc2cccc(Cl)c2F)cc1C [Compound 118, N′-(4-(3-chloro-2-fluorobenzyl)-2,5-dimethylphenyl)-N-ethyl-N-methylformimidamide] | > 80 | > 75 | 75 | > 75 | > 80 | > 70 | > 80 |
| CCN(C)C=Nc1cc(C)c(Cc2cccc(C)c2)cc1F [Compound 210, N-ethyl-N′-(2-fluoro-5-methyl-4-(3-methylbenzyl)phenyl)-N-methylformimidamide] | > 80 | > 75 | 75 | > 75 | > 80 | > 70 | > 80 |
| Cc1cc(N=CNC(C)C)c(C)cc1Cc1ccccc1F [Compound 66, N′-(4-(2-fluorobenzyl)-2,5-dimethylphenyl)-N-isopropylformimidamide] | > 80 | > 75 | 75 | > 75 | > 80 | > 70 | > 80 |
| CCN(C)C=Nc1cc(C)c(Cc2ccc(C)c(F)c2)cc1Cl [Compound 139, N′-(2-chloro-4-(3-fluoro-4-methylbenzyl)-5-methylphenyl)-N-ethyl-N-methylformimidamide] | > 80 | > 75 | 75 | > 75 | > 80 | > 70 | > 80 |
| CCN(C)C=Nc1cc(C)c(Cc2cccc(Cl)c2)cc1C1CC1 [Compound 199, N′-(4-(3-chlorobenzyl)-2-cyclopropyl-5-methylphenyl)-N-ethyl-N-methylformimidamide] | > 80 | > 75 | 75 | > 75 | > 80 | > 70 | > 80 |
| CCN(C)C=Nc1cc(C)c(Cc2cc(F)ccc2Cl)cc1C [Compound 143, N′-(4-(2-chloro-5-fluorobenzyl)-2,5-dimethylphenyl)-N-ethyl-N-methylformimidamide] | > 80 | > 75 | 75 | > 75 | > 80 | > 70 | > 80 |
| C=CCN(C)C=Nc1cc(C)c(Cc2ccccc2F)cc1C [Compound 83, N-allyl-N′-(4-(2-fluorobenzyl)-2,5-dimethylphenyl)-N-methylformimidamide] | > 80 | > 75 | 75 | > 75 | > 80 | > 70 | > 80 |
| CCN(C)C=Nc1cc(C)c(Cc2ccccc2OC(F)(F)F)cc1F [Compound 207, N-ethyl-N′-(2-fluoro-5-methyl-4-(2-(trifluoromethoxy)benzyl)phenyl)-N-methylformimidamide] | > 80 | > 75 | 75 | > 75 | > 80 | > 70 | > 80 |
